Columns and labels:
[1] = test system: advanced solid tumors; recurrent and refractory CNS tumors; settings: human, in vivo; cited from earlier work
[2] = test system: MDA-MB-231 human breast cancer tumors; assay: In vivo kinetic analysis: tumor/normal tissue NIR signal ratio (TBR); parameters: species or system athymic mice
Protocol: Since fluorescent imaging techniques rely on the concentration of each contrast agent, the optimum dose range for ICG-p28 in mice with MDA-MB-231 human breast cancer tumors was determined with the PDE unit. Each mouse was injected i.v. with ICG-p28 or ICG alone at 0.2-1.0 mg/kg (˜50 to 250 nM). The mice were imaged at various time points (6-72 hr), and the ratio of the NIR signal intensity of the tumor tissue and normal tissue (thigh) was calculated.
ICG-p28 or ICG alone was injected intravenously (i.v.) (tail vein) at 0.2, 0.5, or 1 mg/kg-b.w. Animals were imaged using an Odyssey scanner (LI-COR Biosciences) at 6-72 hr post i.v. administration. The tumor background ratio (TBR) was determined using ImageJ software (National Institutes of Health), where a region of interest (ROI) was drawn over the whole tumor and a background ROI was drawn over adjacent tissue. An ROI was manually generated around each tumor (800 nm channel).

MDA-MB-231-iRFP tumors = assay: Tumor margin assessment: colocalization with tumor marker iRFP, ex vivo Odyssey scan; type: in vivo, athymic mice; settings: 0.5 mg/kg i.v., 24 hr
Protocol: In FIG. 3B, Athymic mice bearing MDA-MB-231-iRFP tumors were injected i.v. with either ICG-p28 or ICG alone at 0.5 mg/kg. Twenty-four hours after injection, representative ex vivo images of the tumour and surrounding soft tissues for the ICG-p28 group (top row) and the ICG alone group (bottom row) were taken with an Odyssey scanner. The dotted line in the images indicates the outer edge of the soft tissue. iRFP (red: 700 nm); ICG-p28 or ICG (green: 800 nm); and colocalization (yellow-orange). In FIG. 3C, Concordance rate of the fluorescent signal in each group [the ICG-p28 group (n=10) and the ICG alone group (n=5)]; **: P<0.01.
ICG-p28 or ICG alone at 0.5 mg/kg was injected i.v. into athymic mice inoculated with MDA-MB-231-iRFP cells; 24 hr later, the xenografted tumors and surrounding tissues were removed.
MDA-MB-231-iRFP cells (1.0×10^6 cells in 0.1 ml PBS) were inoculated s.c. into the right back of mice. Once mice developed tumors (˜200 mm^3), they were injected i.v. with ICG-p28 or ICG at 0.5 mg/kg-b.w. Twenty-four hours after injection, tumors and the surrounding tissue were resected. Specimens were imaged ex vivo with an Odyssey scanner with the 700 nm channel for iRFP and the 800 nm channel for ICG-p28 or ICG alone. The area measurements were performed using ImageJ. The mean±SD values were calculated.

TNBC PDX tumors [3] = assay: Detection of residual cancer cells in the tumor margin by huAlu PCR; type: in vivo, NSG mice; settings: equivalent of ICG-p28 0.5 mg/kg i.v., margins at 6 and 12 o'clock
Protocol: During image-guided surgery, tumors with a 2-mm safety margin and the surrounding mammary tissues at the 6 and 12 o'clock positions were removed in real time under guidance of the PDE imaging system (FIG. 6A). These samples were collected to undergo huAlu PCR as well as traditional histological analyses.
Each agent was injected i.v. (tail vein) with the corresponding compound at the equivalent of ICG-p28 0.5 mg/kg-b.w. Twenty-four hours after injection, all surgical procedures were started under sterile conditions. Following anesthesia administration, the PDE imaging system was used to monitor NIR fluorescence throughout the entire surgical procedure. […] After tumor resection, the mice were kept in their cages for an additional four weeks and monitored for tumor recurrence. Tumor recurrence was monitored by palpitation of the surgical area. Four weeks after surgery, the mice were evaluated to determine whether any of the tumors had recurred due to remnant positive margins at the resection site.
A quantitative analysis using human-specific Alu sequence (huAlu) was performed on samples collected from the margins. […] We standardized the quantitative detection of huAlu in resected tumors and surrounding margin tissues according to previously published methods. […] The mean±SD values were calculated.

TNBC PDX tumors [4] = assay: Histological analysis (H&E, Ki-67) of tumor margin samples; type: in vivo, NSG mice; settings: H&E and Ki67 staining of margin samples
Protocol: We next performed traditional histological analyses with H&E and proliferative marker Ki67 staining on the set of tumor margin samples that were used for the Alu PCR assays.
Resected tissues were placed in containers prefilled with buffered 3.7% formalin (Anatech) and fixed for 24 hr. Formalin was replaced with 70% ethanol following fixation. Samples were paraffin-embedded, and blocks were cut into 4 μm-thick sections and mounted onto slides. H&E- and Ki-67-stained slides were analyzed by a pathologist blinded to the experimental groups and surgical resection results. The pathologist was responsible for determining a tumor's presence, margin status, and general characteristics of resected tissues.

TNBC PDX tumors [5] = assay: Tumor recurrence follow-up after image-guided surgery in PDX model; type: in vivo, NSG mice
Protocol: Each agent was injected i.v. (tail vein) with the corresponding compound at the equivalent of ICG-p28 0.5 mg/kg-b.w. Twenty-four hours after injection, all surgical procedures were started under sterile conditions. Following anesthesia administration, the PDE imaging system was used to monitor NIR fluorescence throughout the entire surgical procedure. Tumors with a 2-mm safety margin and the surrounding mammary tissues at the 6 and 12 o'clock positions were removed in real time under guidance of the PDE imaging system. […] Following tumor excision, the skin incisions were closed using a nylon suture, and the mice were returned to their cages. After tumor resection, the mice were kept in their cages for an additional four weeks and monitored for tumor recurrence. Tumor recurrence was monitored by palpitation of the surgical area. Four weeks after surgery, the mice were evaluated to determine whether any of the tumors had recurred due to remnant positive margins at the resection site.

[6] = ICG as used in clinical practice; cited from earlier work
[7] = test system: MDA-MB-231 or IOWA-IT orthotopic MFP xenograft tumors; assay: Intraoperative imaging of orthotopic xenografts, tumor recurrence follow-up
[8] = test system: multiple breast cancer animal models

| Compound | adverse effects, toxicity or immunogenicity [1] | tumor/normal tissue ratio of NIR signal intensity ([2]; 0.2-1.0 mg/kg i.v., 24 hr, tumor vs thigh) | TBR ([2]; ICG alone, tumor site not distinguishable) | concordance rate of 700 and 800 nm NIR signals (MDA-MB-231-iRFP tumors) [%] | log (huAlu DNA/mGAPDH DNA) in surrounding tissues (TNBC PDX tumors [3]) | positive margin rate (TNBC PDX tumors [4]) [%] | tumor recurrence rate for the surgical site (TNBC PDX tumors [5]; four weeks after image-guided surgery) [%] | average volume of the recurrent tumors (TNBC PDX tumors [5]; four weeks after surgical resection) | half-life [6] [min] | adverse events related to administration during tumor removal ([7]; 0.5 mg/kg i.v.) | tumor recurrence at the surgical sites ([7]; 0.5 mg/kg i.v., four weeks after tumor resection) [%] | average volume of the recurrent tumors ([7]; four weeks after tumor resection) [mm3] | tumor recurrence rate overall ([8]; multiple models combined, N of 24) [%] | average recurrent tumor volume overall ([8]; multiple subtypes of breast cancer combined) |
| --- | --- | --- | --- | --- | --- | --- | --- | --- | --- | --- | --- | --- | --- | --- |
| p28: peptide derived from Pseudomonas aeruginosa azurin, amino acids 50-77 (SEQ ID NO: 5) | no significant adverse effects, toxicity or immunogenicity | – | – | – | – | – | – | – | – | – | – | – | – | – |
| CC1(C)C(/C=C/C=C/C=C/C=C2\N(CCCCS(=O)(=O)O)c3ccc4ccccc4c3C2(C)C)=[N+](CCCCS(=O)(=O)[O-])c2ccc3ccccc3c21 [ICG alone, indocyanine green] | – | ~1 | ~1.1 | 12 | −0.9 | 19 | 50.0 | 1,952 mm^3 | 2 to 4 | no apparent adverse events | 25.0 | 423 | 33 | 1,188 mm^3 |

— patent US20250302306A1, “TUMOR TARGETING PROBE FOR IMAGE GUIDED SURGICAL METHODS” (priority 2021, published 2025)
